From patent US7868135B2, “Compositions of lipopeptide antibiotic derivatives and methods of use thereof” (priority 2003, dated 2011)
Read-outs that look alike come from different tables or passages of the source. Starred links: 1 amine or outer side, 2 acyl side, 3 side chain; linkers in the order of their positions; H or OH if unused. Positions of bridges follow the written chain, without caps; N, C: chain ends. Non-standard residues stand in square brackets, D forms with d. Residues, ends and D or L forms follow the SMILES beside them. ξ: configuration not given here. *: point of attachment. X37 = CC(NC(=O)[C@@H](N)CCCCN)C(N[*:1])C(=O)[*:2]; Benzoyl(4-OC10H21) = CCCCCCCCCCOc1ccc(C(=O)*)cc1; Hexadecanesulfonyl = CCCCCCCCCCCCCCCCS(=O)(=O)*; ξAbu(3ξ-NHCOCH2NH2) = CC(NC(=O)CN)C(N)C(=O)O; ξAbu(βξ-NH2) = CC(N[*:3])C(N[*:1])C(=O)[*:2]; Phac(3-amino) = O=C(Cc1cccc(N[*:1])c1)[*:2]; Pentadecanoyl = CCCCCCCCCCCCCCC(=O)*; X8 = O=C(/C=C/c1ccc(N[*:1])cc1)[*:2]; Bta = N[C@@H](Cc1csc2ccccc12)C(=O)O; Stearoyl = CCCCCCCCCCCCCCCCCC(=O)*; ξAsp(βξ-Me) = CC(C(=O)O)C(N)C(=O)O; Palmitoyl = CCCCCCCCCCCCCCCC(=O)*; X2 = O=C(CCc1ccc(N[*:1])cc1)[*:2]; X1 = O=C(Cc1ccc(N[*:1])cc1)[*:2]; Myristoyl = CCCCCCCCCCCCCC(=O)*; X13 = O=C(CCCCCCCCCCOc1ccccc1)*; ξAbu(3ξ-NH2) = CC(N)C(N)C(=O)O; Lauroyl = CCCCCCCCCCCC(=O)*; Decanoyl = CCCCCCCCCC(=O)*; X19 = CCCCCCCCCCS(=O)(=O)*; Octanoyl = CCCCCCCC(=O)*; Pip = O=C(O)[CH]1CCCCN1; ξD = NC(CC(=O)O)C(=O)O; ξPip = O=C(O)C1CCCCN1; ξV = CC(C)C(N)C(=O)O; ξP = O=C(O)C1CCCN1; OtBu = CC(C)(C)O*

Test system: Staphylococcus aureus (MSSA)
Summary of the method: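 Broth microdilution MIC per NCCLS M7-A6 with doubling serial dilutions, in cation-adjusted Mueller-Hinton broth supplemented with 0.625 mM calcium.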

Row | MIC (24 h) [µg/mL] | SMILES | MIC (S. aureus (MSSA), CAMHB supplemented with 0.625 mM calcium, 24 hours at about 37° C., a range = compound tested multiple times) [µg/mL]
1 | 0.5 to 1 | CCCCCCCCCCCCCCCCS(=O)(=O)NCC(=O)NC(CC(=O)O)C(=O)NC1C(=O)N2CCCCC2C(=O)NC(C(C)C(=O)O)C(=O)NC(CC(=O)O)C(=O)NCC(=O)NC(CC(=O)O)C(=O)NCC(=O)NC(C(C)N)C(=O)NC(C(C)C)C(=O)N2CCCC2C(=O)NC1C (stereo not drawn) [Compound 99, CH3—(CH2)15—SO2-Gly-Amphomycin] (Hexadecanesulfonyl-GD[ξAbu(βξ-NH2)][Pip][ξAsp(βξ-Me)]DGDG[ξAbu(3ξ-NH2)]VP; lactam 3-C; configuration not given here) | 
2 | 4 | CCCCCCCCCCS(=O)(=O)N[C@@H](Cc1ccccc1)C(=O)NC(CC(=O)O)C(=O)NC1C(=O)N2CCCCC2C(=O)NC(C(C)C(=O)O)C(=O)NC(CC(=O)O)C(=O)NCC(=O)NC(CC(=O)O)C(=O)NCC(=O)NC(C(C)N)C(=O)NC(C(C)C)C(=O)N2CCCC2C(=O)NC1C (stereo partly drawn) [Compound 100, CH3—(CH2)9—SO2-Phe-Amphomycin] (X19-F[ξD][ξAbu(βξ-NH2)][ξPip][ξAsp(βξ-Me)][ξD]G[ξD]G[ξAbu(3ξ-NH2)][ξV][ξP]; lactam 3-C) | 
3 | 32 | CCCCCCCCCCS(=O)(=O)NCC(=O)NC(CC(=O)O)C(=O)NC1C(=O)N2CCCCC2C(=O)NC(C(C)C(=O)O)C(=O)NC(CC(=O)O)C(=O)NCC(=O)NC(CC(=O)O)C(=O)NCC(=O)NC(C(C)NC(=O)[C@@H](N)CCCCN)C(=O)NC(C(C)C)C(=O)N2CCCC2C(=O)NC1C (stereo partly drawn) [Compound 101, CH3—(CH2)9—SO2-Gly-Amphomycin-9-Lys] (X19-G[ξD][ξAbu(βξ-NH2)][ξPip][ξAsp(βξ-Me)][ξD]G[ξD]G[X37][ξV][ξP]; lactam 3-C) | 
4 | 8 | CCCCCCCCCCS(=O)(=O)NCC(=O)NC(CC(=O)O)C(=O)NC1C(=O)N2CCCCC2C(=O)NC(C(C)C(=O)O)C(=O)NC(CC(=O)O)C(=O)NCC(=O)NC(CC(=O)O)C(=O)NCC(=O)NC(C(C)NC(=O)CN)C(=O)NC(C(C)C)C(=O)N2CCCC2C(=O)NC1C (stereo not drawn) [Compound 102, CH3—(CH2)9—SO2-Gly-Amphomycin-9-Gly] (X19-GD[ξAbu(βξ-NH2)][Pip][ξAsp(βξ-Me)]DGDG[ξAbu(3ξ-NHCOCH2NH2)]VP; lactam 3-C; configuration not given here) | 
5 | 8 to 16 | CCCCCCCCCCCC(=O)NCC(=O)NC(CC(=O)O)C(=O)NC1C(=O)N2CCCCC2C(=O)NC(C(C)C(=O)O)C(=O)NC(CC(=O)O)C(=O)NCC(=O)NC(CC(=O)O)C(=O)NCC(=O)NC(C(C)N)C(=O)NC(C(C)C)C(=O)N2CCCC2C(=O)NC1C (stereo not drawn) [Compound 103, C12-Gly-Amphomycin] (Lauroyl-GD[ξAbu(βξ-NH2)][Pip][ξAsp(βξ-Me)]DGDG[ξAbu(3ξ-NH2)]VP; lactam 3-C; configuration not given here) | 
6 | 2 | CCCCCCCC(=O)Nc1ccc(CC(=O)NC(CC(=O)O)C(=O)NC2C(=O)N3CCCCC3C(=O)NC(C(C)C(=O)O)C(=O)NC(CC(=O)O)C(=O)NCC(=O)NC(CC(=O)O)C(=O)NCC(=O)NC(C(C)N)C(=O)NC(C(C)C)C(=O)N3CCCC3C(=O)NC2C)cc1 (stereo not drawn) [Compound 104, C8-(p-Apa)-Amphomycin] (Octanoyl-[X1]D[ξAbu(βξ-NH2)][Pip][ξAsp(βξ-Me)]DGDG[ξAbu(3ξ-NH2)]VP; lactam 3-C; configuration not given here) | 
7 | 0.5 | CCCCCCCCCCCCCC(=O)NCC(=O)NC(CC(=O)O)C(=O)NC1C(=O)N2CCCCC2C(=O)NC(C(C)C(=O)O)C(=O)NC(CC(=O)O)C(=O)NCC(=O)NC(CC(=O)O)C(=O)NCC(=O)NC(C(C)N)C(=O)NC(C(C)C)C(=O)N2CCCC2C(=O)NC1C (stereo not drawn) [Compound 105, C14-Gly-Amphomycin] (Myristoyl-GD[ξAbu(βξ-NH2)][Pip][ξAsp(βξ-Me)]DGDG[ξAbu(3ξ-NH2)]VP; lactam 3-C; configuration not given here) | 
8 | 0.5 | CCCCCCCCCCCCCCCC(=O)NCC(=O)NC(CC(=O)O)C(=O)NC1C(=O)N2CCCCC2C(=O)NC(C(C)C(=O)O)C(=O)NC(CC(=O)O)C(=O)NCC(=O)NC(CC(=O)O)C(=O)NCC(=O)NC(C(C)N)C(=O)NC(C(C)C)C(=O)N2CCCC2C(=O)NC1C (stereo not drawn) [Compound 106, C16-Gly-Amphomycin] (Palmitoyl-GD[ξAbu(βξ-NH2)][Pip][ξAsp(βξ-Me)]DGDG[ξAbu(3ξ-NH2)]VP; lactam 3-C; configuration not given here) | 
9 | 2 | CCCCCCCCCCCCCCCCCC(=O)NCC(=O)NC(CC(=O)O)C(=O)NC1C(=O)N2CCCCC2C(=O)NC(C(C)C(=O)O)C(=O)NC(CC(=O)O)C(=O)NCC(=O)NC(CC(=O)O)C(=O)NCC(=O)NC(C(C)N)C(=O)NC(C(C)C)C(=O)N2CCCC2C(=O)NC1C (stereo not drawn) [Compound 107, C18-Gly-Amphomycin] (Stearoyl-GD[ξAbu(βξ-NH2)][Pip][ξAsp(βξ-Me)]DGDG[ξAbu(3ξ-NH2)]VP; lactam 3-C; configuration not given here) | 
10 |  | CCCCCCCCCCCC(=O)Nc1ccc(CCC(=O)Nc2ccc(CCC(=O)NC(CC(=O)O)C(=O)NC3C(=O)N4CCCCC4C(=O)NC(C(C)C(=O)O)C(=O)NC(CC(=O)O)C(=O)NCC(=O)NC(CC(=O)O)C(=O)NCC(=O)NC(C(C)N)C(=O)NC(C(C)C)C(=O)N4CCCC4C(=O)NC3C)cc2)cc1 (stereo not drawn) [Compound 109, C12-(p-Aminophenylpropanoyl)2-Amphomycin] (Lauroyl-[X2][X2]D[ξAbu(βξ-NH2)][Pip][ξAsp(βξ-Me)]DGDG[ξAbu(3ξ-NH2)]VP; lactam 4-C; configuration not given here) | 2
11 | 0.5 | CCCCCCCCCCOc1ccc(C(=O)NCC(=O)NC(CC(=O)O)C(=O)NC2C(=O)N3CCCCC3C(=O)NC(C(C)C(=O)O)C(=O)NC(CC(=O)O)C(=O)NCC(=O)NC(CC(=O)O)C(=O)NCC(=O)NC(C(C)N)C(=O)NC(C(C)C)C(=O)N3CCCC3C(=O)NC2C)cc1 (stereo not drawn) [Compound 110, CH3—(CH2)9—O-p-Ph-C(═O)-Gly-Amphomycin] ({Benzoyl(4-OC10H21)}-GD[ξAbu(βξ-NH2)][Pip][ξAsp(βξ-Me)]DGDG[ξAbu(3ξ-NH2)]VP; lactam 3-C; configuration not given here) | 
12 | 0.5 to 1 | CCCCCCCCCCCC(=O)Nc1cccc(CC(=O)NC(CC(=O)O)C(=O)NC2C(=O)N3CCCCC3C(=O)NC(C(C)C(=O)O)C(=O)NC(CC(=O)O)C(=O)NCC(=O)NC(CC(=O)O)C(=O)NCC(=O)NC(C(C)N)C(=O)NC(C(C)C)C(=O)N3CCCC3C(=O)NC2C)c1 (stereo not drawn) [Compound 111, C12-(M-Apa)-Amphomycin] (Lauroyl-[Phac(3-amino)]D[ξAbu(βξ-NH2)][Pip][ξAsp(βξ-Me)]DGDG[ξAbu(3ξ-NH2)]VP; lactam 3-C; configuration not given here) | 
13 | 0.5 | CCCCCCCCCCCCCCC(=O)N[C@@H](CC(=O)OC(C)(C)C)C(=O)NC(CC(=O)O)C(=O)NC1C(=O)N2CCCCC2C(=O)NC(C(C)C(=O)O)C(=O)NC(CC(=O)O)C(=O)NCC(=O)NC(CC(=O)O)C(=O)NCC(=O)NC(C(C)N)C(=O)NC(C(C)C)C(=O)N2CCCC2C(=O)NC1C (stereo partly drawn) [Compound 112, C15-[Asp-(OtBu)]-Amphomycin] (Pentadecanoyl-D(OtBu)[ξD][ξAbu(βξ-NH2)][ξPip][ξAsp(βξ-Me)][ξD]G[ξD]G[ξAbu(3ξ-NH2)][ξV][ξP]; lactam 3-C) | 
14 | 16 | CCCCCCCCCC(=O)Nc1cccc(CC(=O)NC(CC(=O)O)C(=O)NC2C(=O)N3CCCCC3C(=O)NC(C(C)C(=O)O)C(=O)NC(CC(=O)O)C(=O)NCC(=O)NC(CC(=O)O)C(=O)NCC(=O)NC(C(C)N)C(=O)NC(C(C)C)C(=O)N3CCCC3C(=O)NC2C)c1 (stereo not drawn) [Compound 113, C10-(M-Apa)-Amphomycin] (Decanoyl-[Phac(3-amino)]D[ξAbu(βξ-NH2)][Pip][ξAsp(βξ-Me)]DGDG[ξAbu(3ξ-NH2)]VP; lactam 3-C; configuration not given here) | 
15 | 2 | CCCCCCCCCCCCCCC(=O)N[C@H](C(=O)NC(CC(=O)O)C(=O)NC1C(=O)N2CCCCC2C(=O)NC(C(C)C(=O)O)C(=O)NC(CC(=O)O)C(=O)NCC(=O)NC(CC(=O)O)C(=O)NCC(=O)NC(C(C)N)C(=O)NC(C(C)C)C(=O)N2CCCC2C(=O)NC1C)c1ccccc1 (stereo partly shown) [Compound 115, C15-Phg-Amphomycin] | 
16 | 1 | CCCCCCCCCCCCCCC(=O)N[C@H](Cc1ccccc1)C(=O)NC(CC(=O)O)C(=O)NC1C(=O)N2CCCCC2C(=O)NC(C(C)C(=O)O)C(=O)NC(CC(=O)O)C(=O)NCC(=O)NC(CC(=O)O)C(=O)NCC(=O)NC(C(C)N)C(=O)NC(C(C)C)C(=O)N2CCCC2C(=O)NC1C (stereo partly drawn) [Compound 116, C15-(D-Phe)-Amphomycin] (Pentadecanoyl-[dF][ξD][ξAbu(βξ-NH2)][ξPip][ξAsp(βξ-Me)][ξD]G[ξD]G[ξAbu(3ξ-NH2)][ξV][ξP]; lactam 3-C) | 
17 | 8 | CC(C)C1NC(=O)C(C(C)N)NC(=O)CNC(=O)C(CC(=O)O)NC(=O)CNC(=O)C(CC(=O)O)NC(=O)C(C(C)C(=O)O)NC(=O)C2CCCCN2C(=O)C(NC(=O)C(CC(=O)O)NC(=O)CNC(=O)CCCCCCCCCCOc2ccccc2)C(C)NC(=O)C2CCCN2C1=O (stereo not drawn) [Compound 117, Ph-O—(CH2)11-Gly-Amphomycin] (X13-GD[ξAbu(βξ-NH2)][Pip][ξAsp(βξ-Me)]DGDG[ξAbu(3ξ-NH2)]VP; lactam 3-C; configuration not given here; N-terminus assumed) | 
18 | 2 | CCCCCCCCCC(=O)N[C@@H](Cc1csc2ccccc12)C(=O)NC(CC(=O)O)C(=O)NC1C(=O)N2CCCCC2C(=O)NC(C(C)C(=O)O)C(=O)NC(CC(=O)O)C(=O)NCC(=O)NC(CC(=O)O)C(=O)NCC(=O)NC(C(C)N)C(=O)NC(C(C)C)C(=O)N2CCCC2C(=O)NC1C (stereo partly drawn) [Compound 118, C10-(L-BBTA)-Amphomycin] (Decanoyl-[Bta][ξD][ξAbu(βξ-NH2)][ξPip][ξAsp(βξ-Me)][ξD]G[ξD]G[ξAbu(3ξ-NH2)][ξV][ξP]; lactam 3-C) | 
19 | 0.5 | CCCCCCCCCCCC(=O)Nc1ccc(/C=C/C(=O)NC(CC(=O)O)C(=O)NC2C(=O)N3CCCCC3C(=O)NC(C(C)C(=O)O)C(=O)NC(CC(=O)O)C(=O)NCC(=O)NC(CC(=O)O)C(=O)NCC(=O)NC(C(C)N)C(=O)NC(C(C)C)C(=O)N3CCCC3C(=O)NC2C)cc1 (stereo not drawn) [Compound 120, C12-(p-Amino-Trans-Cinnamyl)-Amphomycin] (Lauroyl-[X8]D[ξAbu(βξ-NH2)][Pip][ξAsp(βξ-Me)]DGDG[ξAbu(3ξ-NH2)]VP; lactam 3-C; configuration not given here) | 
